Key:
[1] = Acidic pH stability of dyed fabrics (colour fastness, ΔE); assay type: physicochemical; settings: pH 5 with HCl
Description: (§1) In order to assess the stability and colour fastness of violacein and violacein derivatives dyed onto fabrics, dyed fabrics were subjected to a number of conditions. Fabrics were dyed according to Example 18 and colour coordinates and colour change before and after exposure to a given condition were determined as described in Example 18. To measure temperature stability, fabrics were incubated in an oven set to 80° c. for 4 h. To measure stability under acid and alkaline conditions, fabrics were fully submerged in water solutions set to pH 8 with NaOH and pH 5 with HCl and incubated at room temperature for 30 minutes. Fabrics were then incubated at 37° c. for 4 h. To measure stability during laundering, fabrics were washed at 30° c. under the “mix” setting of a Siemens IQ300 washing machine, then dried in a Siemens IQ300 dryer until dry. To measure artificial light stability, fabrics were placed under an LED lamp at room temperature for 16 h. To measure UV light stability, fabrics were placed under a UV lamp at room temperature for 1 h.

[2] = Alkaline pH stability of dyed fabrics (colour fastness, ΔE); assay type: physicochemical; settings: pH 8 with NaOH
Description: as §1

[3] = UV stability of dyed fabrics (colour fastness, ΔE); assay type: physicochemical; settings: for ΔE: before vs after UV lamp, room temperature, 1 h
Description: as §1

[4] = system: E. coli DH5a; assay: Antimicrobial activity of dyed Nylon 6,6 fabric: final OD600 and % inhibition; assay type: cell-based
Description: (§2) Violacein is reported as being a potent antibiotic, capable of inhibiting the growth of a wide range of microbial kingdoms including bacteria, yeast, fungi, viruses, protozoa and nematode. […] To test this, overnight cultures of wild-type E. coli DH5a and S. cerevisiae S228c strains were diluted in 5 mL of cultivation media (LB for E. coli, minimal media for S. cerevisiae) to a starting OD600 of 0.1. 1.5×1.5 cm dyed Nylon 6,6 fabric strips were sterilized by submerging in 75% ethanol for 15 mins and air drying in a laminar air flow hood before adding to each culture (with undyed Nylon 6,6 fabric as a negative control). […] This experiment provides evidence that all violacein derivatives display antimicrobial properties.

[5] = system: S. cerevisiae S228c; assay: as above; assay type: cell-based
Description: as §2

[6] = Acrylic, before and after the stability test
[7] = Bleached cotton, before and after the stability test
[8] = Diacetate, before and after the stability test
[9] = Nylon 6,6, before and after the stability test
[10] = Polyester, before and after the stability test
[11] = Wool, before and after the stability test
[12] = Acrylic, after test (UV lamp, room temperature, 1 h)
[13] = Bleached cotton, after test (UV lamp, room temperature, 1 h)
[14] = Diacetate, after test (UV lamp, room temperature, 1 h)
[15] = Nylon 6,6, after test (UV lamp, room temperature, 1 h)
[16] = Polyester, after test (UV lamp, room temperature, 1 h)
[17] = Wool, after test (UV lamp, room temperature, 1 h)

O=C1N=C(c2c[nH]c3ccc(O)cc23)C=C1c1c[nH]c2ccccc12 [proviolacein]
L ([1]; Acrylic, After test): 58.2 | a ([1]; Acrylic, After test): −1.53 | b ([1]; Acrylic, After test): 3.12 | L ([1]; Acrylic, Before test): 59.15 | a ([1]; Acrylic, Before test): −0.61 | b ([1]; Acrylic, Before test): 1.45 | ΔE [1, 6]: 2.13 | L ([1]; Bleached cotton, After test): 65.48 | a ([1]; Bleached cotton, After test): 1.87 | b ([1]; Bleached cotton, After test): 2.2 | L ([1]; Bleached cotton, Before test): 62.48 | a ([1]; Bleached cotton, Before test): 1.73 | b ([1]; Bleached cotton, Before test): 2.27 | ΔE [1, 7]: 3.00 | L ([1]; Diacetate, After test): 59.6 | a ([1]; Diacetate, After test): 4.35 | b ([1]; Diacetate, After test): 7.87 | L ([1]; Diacetate, Before test): 60.94 | a ([1]; Diacetate, Before test): 4.79 | b ([1]; Diacetate, Before test): 4.9 | ΔE [1, 8]: 3.29 | L ([1]; Nylon 6,6, After test): 52.72 | a ([1]; Nylon 6,6, After test): −1.67 | b ([1]; Nylon 6,6, After test): −3.52 | L ([1]; Nylon 6,6, Before test): 50.84 | a ([1]; Nylon 6,6, Before test): 0.04 | b ([1]; Nylon 6,6, Before test): −4.68 | ΔE [1, 9]: 2.79 | L ([1]; Polyester, After test): 64.14 | a ([1]; Polyester, After test): −1.28 | b ([1]; Polyester, After test): 2.92 | L ([1]; Polyester, Before test): 64.55 | a ([1]; Polyester, Before test): −1.43 | b ([1]; Polyester, Before test): 1.3 | ΔE [1, 10]: 1.68 | L ([1]; Wool, After test): 66.56 | a ([1]; Wool, After test): −0.93 | b ([1]; Wool, After test): 5.56 | L ([1]; Wool, Before test): 65.49 | a ([1]; Wool, Before test): −1.55 | b ([1]; Wool, Before test): 5.81 | ΔE [1, 11]: 1.26 | L ([2]; Acrylic, After test): 58.76 | a ([2]; Acrylic, After test): −2.16 | b ([2]; Acrylic, After test): 3.85 | L ([2]; Acrylic, Before test): 57.87 | a ([2]; Acrylic, Before test): −0.46 | b ([2]; Acrylic, Before test): 1.91 | ΔE [2, 6]: 2.73 | L ([2]; Bleached cotton, After test): 64.37 | a ([2]; Bleached cotton, After test): 2.22 | b ([2]; Bleached cotton, After test): 2.08 | L ([2]; Bleached cotton, Before test): 63.78 | a ([2]; Bleached cotton, Before test): 2.31 | b ([2]; Bleached cotton, Before test): 1.4 | ΔE [2, 7]: 0.90 | L ([2]; Diacetate, After test): 61.54 | a ([2]; Diacetate, After test): 3.25 | b ([2]; Diacetate, After test): 6.78 | L ([2]; Diacetate, Before test): 60.55 | a ([2]; Diacetate, Before test): 3.12 | b ([2]; Diacetate, Before test): 6.29 | ΔE [2, 8]: 1.11 | L ([2]; Nylon 6,6, After test): 50.89 | a ([2]; Nylon 6,6, After test): −1.8 | b ([2]; Nylon 6,6, After test): −3.04 | L ([2]; Nylon 6,6, Before test): 52.98 | a ([2]; Nylon 6,6, Before test): −2.5 | b ([2]; Nylon 6,6, Before test): −3.65 | ΔE [2, 9]: 2.29 | L ([2]; Polyester, After test): 64.69 | a ([2]; Polyester, After test): −1.03 | b ([2]; Polyester, After test): −0.34 | L ([2]; Polyester, Before test): 64.55 | a ([2]; Polyester, Before test): −2.15 | b ([2]; Polyester, Before test): 1.47 | ΔE [2, 10]: 2.13 | L ([2]; Wool, After test): 65.28 | a ([2]; Wool, After test): −1.97 | b ([2]; Wool, After test): 5.42 | L ([2]; Wool, Before test): 65.56 | a ([2]; Wool, Before test): −2.33 | b ([2]; Wool, Before test): 7.35 | ΔE [2, 11]: 1.98 | L [3, 12]: 57.07 | a [3, 12]: 0.02 | b [3, 12]: 1.94 | L ([3]; Acrylic, before test): 57.31 | a ([3]; Acrylic, before test): −0.99 | b ([3]; Acrylic, before test): 2.73 | ΔE ([3]; Acrylic): 1.30 | L [3, 13]: 64.92 | a [3, 13]: 1.27 | b [3, 13]: 3.29 | L ([3]; Bleached cotton, before test): 64.65 | a ([3]; Bleached cotton, before test): 0.4 | b ([3]; Bleached cotton, before test): 2.43 | ΔE ([3]; Bleached cotton): 1.25 | L [3, 14]: 61.92 | a [3, 14]: 3.89 | b [3, 14]: 6.22 | L ([3]; Diacetate, before test): 61.25 | a ([3]; Diacetate, before test): 3.87 | b ([3]; Diacetate, before test): 4.46 | ΔE ([3]; Diacetate): 1.88 | L [3, 15]: 57.07 | a [3, 15]: 0.02 | b [3, 15]: 1.94 | L ([3]; Nylon 6,6, before test): 57.31 | a ([3]; Nylon 6,6, before test): −0.99 | b ([3]; Nylon 6,6, before test): 2.73 | ΔE ([3]; Nylon 6,6): 1.30 | L [3, 16]: 65.53 | a [3, 16]: −1.02 | b [3, 16]: 0.99 | L ([3]; Polyester, before test): 64.26 | a ([3]; Polyester, before test): −2.11 | b ([3]; Polyester, before test): 1.21 | ΔE ([3]; Polyester): 1.69 | L [3, 17]: 62.87 | a [3, 17]: −0.07 | b [3, 17]: 5.48 | L ([3]; Wool, before test): 62.43 | a ([3]; Wool, before test): −0.15 | b ([3]; Wool, before test): 5.23 | ΔE ([3]; Wool): 0.51 | Final OD600 ([4]; E. coli cultured overnight at 30° c. with dyed Nylon 6,6 fabric strip, starting OD600 0.1): 4.52 | % Inhibition ([4]; E. coli, dyed Nylon 6,6 fabric vs undyed fabric control): 13.33% | Final OD600 ([5]; S. cerevisiae cultured overnight at 30° c. with dyed Nylon 6,6 fabric strip, starting OD600 0.1): 4.39 | % Inhibition ([5]; S. cerevisiae, dyed Nylon 6,6 fabric vs undyed fabric control): 18.13% | growth inhibition of S. cerevisiae ([5]; dyed Nylon 6,6 fabric strip in culture, overnight 30° c., OD600 versus undyed fabric): most inhibited

Source: patent publication US20260092179A1, “GENETICALLY MODIFIED HOST CELLS PRODUCING VIOLACEIN, ANALOGUES, AND DERIVATIVES THEREOF” (OCTARINE BIO APS, priority 2022, published 2026)
